Experimental data published in PubChem BioAssay AID330 (DTP/NCI, 2004).
Several values for one entry are separate records, joined by “and”; a condition that tells them apart may be missing. Equal entries are not always repeated. Toxic doses and inconclusive results are not listed. How the source made its calls: active means survival T/C of 150% or more; inactive means T/C below 125% in these data. Square brackets hold non-standard residues; d marks the D form. Peptide text beside a SMILES is read from it. * marks the point of attachment. ξ: configuration not given here. Cbz = O=C(OCc1ccccc1)*; ξI = CCC(C)C(N)C(=O)O

Test system: P388 leukemia ip, CD2F1 mice, survival T/C
Assay: NCI In Vivo Anticancer Drug Screen. Data for tumor model P388 Leukemia (intraperitoneal) in CD2F1 (CDF1) mice
Conditions: endpoint: median survival time, higher = longer survival
Summary of the method: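 Mice carrying the transplanted tumor received test compound or vehicle. Survival was recorded in each group, and the value is the treated-group measurement divided by that of the vehicle-treated control group.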

[1] = dose: 50.0 mg/kg/injection, schedule: Q01DX009 (ip), vehicle: saline
[2] = dose: 100.0 mg/kg/injection, schedule: Q01DX009 (ip), vehicle: saline
[3] = dose: 200.0 mg/kg/injection, schedule: Q01DX009 (ip), vehicle: saline
[4] = dose: 6.25 mg/kg/injection, schedule: Q01DX009 (ip), vehicle: saline with Tween-80
[5] = dose: 50.0 mg/kg/injection, schedule: Q01DX005 (ip), vehicle: Klucel (hydroxypropylcellulose) (HPC)
[6] = dose: 100.0 mg/kg/injection, schedule: Q01DX005 (ip), vehicle: Klucel (hydroxypropylcellulose) (HPC)
[7] = dose: 200.0 mg/kg/injection, schedule: Q01DX005 (ip), vehicle: Klucel (hydroxypropylcellulose) (HPC)
[8] = dose: 100.0 mg/kg/injection, schedule: Q04DX003 (ip), vehicle: saline with Tween-80

Measured: T/C

NCP1(=O)CNC(=O)NC1
inactive: dose: 50.0 mg/kg/injection, schedule: Q01DX005 (ip), vehicle: saline 116 % of control | dose: 100.0 mg/kg/injection, schedule: Q01DX005 (ip), vehicle: saline 103 % of control | dose: 200.0 mg/kg/injection, schedule: Q01DX005 (ip), vehicle: saline 113 % of control

O=CN1CCCC1Cc1ccc2ccccc2c1 (centres undefined)
inactive: dose: 50.0 mg/kg/injection, schedule: Q01DX001 (ip), vehicle: Klucel (hydroxypropylcellulose) (HPC) 107 % of control | dose: 100.0 mg/kg/injection, schedule: Q01DX001 (ip), vehicle: Klucel (hydroxypropylcellulose) (HPC) 98 % of control | dose: 200.0 mg/kg/injection, schedule: Q01DX001 (ip), vehicle: Klucel (hydroxypropylcellulose) (HPC) 101 % of control

NS(=O)(=O)c1ccc(N2CCS(=O)(=O)CC2)cc1
inactive: [1] 101 % of control | [2] 90 % of control | [3] 97 % of control

CCCOC(=O)/C=C(\Cl)C(=O)OCCC
inactive: [4] 104 % of control | dose: 12.5 mg/kg/injection, schedule: Q01DX009 (ip), vehicle: saline with Tween-80 109 % of control | dose: 25.0 mg/kg/injection, schedule: Q01DX009 (ip), vehicle: saline with Tween-80 113 % of control

Nc1ccc(Nc2ccncc2)cc1
inactive: dose: 6.25 mg/kg/injection, schedule: Q01DX009 (ip), vehicle: Klucel (hydroxypropylcellulose) (HPC) 100 % of control | dose: 12.5 mg/kg/injection, schedule: Q01DX009 (ip), vehicle: Klucel (hydroxypropylcellulose) (HPC) 95 % of control | dose: 25.0 mg/kg/injection, schedule: Q01DX009 (ip), vehicle: Klucel (hydroxypropylcellulose) (HPC) 100 % of control

COC(=O)c1cccc2c1OCO2
inactive: dose: 100.0 mg/kg/injection, schedule: Q01DX009 (ip), vehicle: saline with Tween-80 100 % of control | dose: 200.0 mg/kg/injection, schedule: Q01DX009 (ip), vehicle: saline with Tween-80 100 % of control | dose: 400.0 mg/kg/injection, schedule: Q01DX009 (ip), vehicle: saline with Tween-80 100 % of control

CCC(C)C(NC(=O)OCc1ccccc1)C(=O)NCC(=O)O (centres undefined) (Cbz-[ξI]-Gly-OH)
inactive: [5] 97 % of control | [6] 97 % of control | [7] 90 % of control

CCCCCCCCCCCC1N=C(N)N=C(N)N1c1cccc(Br)c1 (centres undefined)
inactive: dose: 12.5 mg/kg/injection, schedule: Q01DX005 (ip), vehicle: saline with Tween-80 100 % of control | dose: 25.0 mg/kg/injection, schedule: Q01DX005 (ip), vehicle: saline with Tween-80 112 % of control | dose: 50.0 mg/kg/injection, schedule: Q01DX005 (ip), vehicle: saline with Tween-80 97 % of control

COc1c(Br)cc(/C=C(/C)[N+](=O)[O-])cc1Br
inactive: dose: 25.0 mg/kg/injection, schedule: Q04DX003 (ip), vehicle: saline with Tween-80 112 % of control | dose: 50.0 mg/kg/injection, schedule: Q04DX003 (ip), vehicle: saline with Tween-80 106 % of control | [8] 122 % of control

Cc1[nH]c2ccc(N(C)C)cc2c(=O)c1CNCc1ccccc1
inactive: dose: 1.56 mg/kg/injection, schedule: Q01DX009 (ip), vehicle: saline with Tween-80 114 % of control | dose: 3.13 mg/kg/injection, schedule: Q01DX009 (ip), vehicle: saline with Tween-80 107 % of control | [4] 103 % of control and 96 % of control

O=C1OC(c2ccccc2)Sc2ccccc21 (centres undefined)
inactive: dose: 100.0 mg/kg/injection, schedule: Q01DX009 (ip), vehicle: Klucel (hydroxypropylcellulose) (HPC) 99 % of control | dose: 200.0 mg/kg/injection, schedule: Q01DX009 (ip), vehicle: Klucel (hydroxypropylcellulose) (HPC) 95 % of control | dose: 400.0 mg/kg/injection, schedule: Q01DX009 (ip), vehicle: Klucel (hydroxypropylcellulose) (HPC) 92 % of control

C(CCC1CO1)CC1CO1 (centres undefined)
inactive: dose: 100.0 mg/kg/injection, schedule: Q04DX002 (ip), vehicle: Klucel (hydroxypropylcellulose) (HPC) 122 % of control

O=C1C2=C(Nc3cc(Cl)ccc3N2)OC1c1ccc(Cl)c(Cl)c1 (centres undefined)
inactive: [5] 92 % of control | [7] 88 % of control

CCOC(=O)NCCCCCCNC(=O)OCC
inactive: [5] 99 % of control and 90 % of control | [6] 90 % of control and 95 % of control | [7] 93 % of control and 98 % of control

C=C(C)C(=O)N1c2ccc(OC)cc2CC1C(=O)OCC (centres undefined)
inactive: dose: 60.0 mg/kg/injection, schedule: Q01DX005 (ip), vehicle: saline + Tween-80 + alcohol 102 % of control | dose: 120.0 mg/kg/injection, schedule: Q01DX005 (ip), vehicle: saline + Tween-80 + alcohol 100 % of control | dose: 240.0 mg/kg/injection, schedule: Q01DX005 (ip), vehicle: saline + Tween-80 + alcohol 97 % of control

COc1c(-c2ccccc2)oc2c(ccc3occc32)c1=O
inactive: dose: 12.5 mg/kg/injection, schedule: Q01DX005 (ip), vehicle: Klucel (hydroxypropylcellulose) (HPC) 104 % of control | dose: 25.0 mg/kg/injection, schedule: Q01DX005 (ip), vehicle: Klucel (hydroxypropylcellulose) (HPC) 99 % of control | [5] 99 % of control | [6] 87 % of control | [7] 88 % of control

CC(=O)OC(C(=O)O)C(OC(C)=O)C(OC(C)=O)C(=O)O (centres undefined)
inactive: [1] 98 % of control | [2] 101 % of control | [3] 95 % of control

OCC1OC(n2cc(I)c3c2ncn2nnnc32)C(O)C1O (centres undefined)
inactive: dose: 3.13 mg/kg/injection, schedule: Q01DX009 (ip), vehicle: water 99 % of control | dose: 6.25 mg/kg/injection, schedule: Q01DX009 (ip), vehicle: water 100 % of control | dose: 12.5 mg/kg/injection, schedule: Q01DX009 (ip), vehicle: water 97 % of control | dose: 25.0 mg/kg/injection, schedule: Q01DX009 (ip), vehicle: water 97 % of control | dose: 50.0 mg/kg/injection, schedule: Q01DX009 (ip), vehicle: water 89 % of control

CCOC(=O)Cn1cnc2cc(C)c(C)cc21
inactive: [8] 90 % of control | dose: 200.0 mg/kg/injection, schedule: Q04DX003 (ip), vehicle: saline with Tween-80 100 % of control | dose: 400.0 mg/kg/injection, schedule: Q04DX003 (ip), vehicle: saline with Tween-80 90 % of control

CC(C)CCCCCCCCCCCCC(=O)NC1C(C)OC(Nc2ncnc3nc[nH]c23)C(O)C1O (centres undefined)
inactive: dose: 0.5 mg/kg/injection, schedule: Q01DX009 (ip), vehicle: other 107 % of control | dose: 1.0 mg/kg/injection, schedule: Q01DX009 (ip), vehicle: other 109 % of control | dose: 2.0 mg/kg/injection, schedule: Q01DX009 (ip), vehicle: other 98 % of control | dose: 4.0 mg/kg/injection, schedule: Q01DX009 (ip), vehicle: other 106 % of control | dose: 6.25 mg/kg/injection, schedule: Q01DX009 (ip), vehicle: other 104 % of control | dose: 8.0 mg/kg/injection, schedule: Q01DX009 (ip), vehicle: other 106 % of control | dose: 12.5 mg/kg/injection, schedule: Q01DX009 (ip), vehicle: other 91 % of control | dose: 25.0 mg/kg/injection, schedule: Q01DX009 (ip), vehicle: other 88 % of control | dose: 50.0 mg/kg/injection, schedule: Q01DX009 (ip), vehicle: other 91 % of control

CN1C(=O)C(O)(C2=C3OCOC3=CC(=O)C2=O)c2ccccc21 (centres undefined)
inactive: dose: 6.25 mg/kg/injection, schedule: Q01DX005 (ip), vehicle: saline 105 % of control | dose: 12.5 mg/kg/injection, schedule: Q01DX005 (ip), vehicle: saline 103 % of control | dose: 25.0 mg/kg/injection, schedule: Q01DX005 (ip), vehicle: saline 102 % of control

COC(CNCc1ccccc1)OC
inactive: dose: 37.5 mg/kg/injection, schedule: Q04DX003 (ip), vehicle: saline 98 % of control | dose: 75.0 mg/kg/injection, schedule: Q04DX003 (ip), vehicle: saline 104 % of control | dose: 150.0 mg/kg/injection, schedule: Q04DX003 (ip), vehicle: saline 95 % of control | dose: 300.0 mg/kg/injection, schedule: Q04DX003 (ip), vehicle: saline 98 % of control
